Experimental data reported in patent US7063842B2, “Compounds and methods for inhibiting the interaction between α-catenin and β-catenin” (McGill University, priority 1997, dated 2006).
Positions of bridges follow the written chain, without caps; N, C: chain ends.

How the values were obtained:
[1] = tested on: Normal human breast A1N4 cells; assay: Disruption of cell adhesion: microinjection of peptide/DAPI mixture into cells, morphology noted at hourly intervals; type: cell-based; conditions: 0.2 pL peptide/DAPI mixture injected, final intracellular concentration of peptide 0.5 mg/ml, after 4 hours
Method: Three peptides (N-Ac-CKHAVVNC-NH2, N-Ac-CKHGWNC-NH2, and H-KHAVVN-OH; SEQ ID NOS: 5, 51 and 8 respectively) were tested for their ability to disrupt cell adhesion. Normal human breast A1N4 cells were grown on gridded glass coverslips to approximately 30% confluence. Peptides were dissolved in distilled water at a concentration of […]. Each of the three peptide solutions was mixed 1:1 with a solution containing the fluorescent marker DAPI (Molecular Probes Inc., Eugene, Oreg.) dissolved in water at a concentration of 40 μg/ml. All of the mixtures were centrifuged at 10,000×g for 5 minutes immediately before use in the experiments. An aliquot ([…]) of each peptide/DAPI mixture was taken up in an Eppendorff microinjection pipette. Microinjection was performed using an Eppendorf microinjector and micromanipulator coupled to an IM35 inverted Zeiss microscope with phase contrast and Hoffman optics. Cells to be injected were located and their position on the grid noted. For microinjection, the pipette was brought close to the cell layer and the micromanipulator programmed to return to the same plane. Cells were injected with 0.2 pL of peptide/DAPI mixture. This corresponds to approximately 1/100 of the cell volume and results in a final intracellular concentration of peptide of 0.5 mg/ml. […] After 4 hours, a difference in the morphology of the cells injected with the various peptides was observed.

[2] = tested on: α-catenin/β-catenin interactions; assay: Immunoprecipitation from adult mouse brain extracts, Western blot probed with anti-α-catenin / anti-β-catenin antibodies; type: binding; conditions: adult mouse brain homogenate incubated 3 hours at 4° C. with peptide at 1 mg/ml
Method: As noted above, modulating agents are capable of disrupting an interaction between α-catenin and β-catenin. This ability may generally be evaluated using any suitable assay known to those of ordinary skill in the art. For example, an immunoprecipitation as described herein may be employed. Within such an assay, disruption of the interaction is measured by assessing the ability of an antibody directed against β-catenin to immunoprecipitate α-catenin in the presence and absence of the modulating agent. For example, tissue such as brain may be homogenized in the presence and absence of modulating agent. The ability of an antibody directed against β-catenin to immunoprecipitate α-catenin from the homogenate is then assessed by probing a Western blot of proteins immunoprecipitated from the tissue homogenate by anti-β-catenin antibody with an anti-α-catenin antibody. […]
These peptides, as well as two control peptides (H-CKHGWNC-OH, SEQ ID NO:6, and H-CKHGWNC-OH, SEQ ID NO:51) were analyzed for their ability to disrupt α-catenin/β-catenin interactions, as judged by standard immunoprecipitation methods. […] Finally, the membrane was washed 3 times with TTBS, and the immunoreactive proteins were detected using an enhanced chemiluminescence kit (ECL; Amersham Life Sciences Inc., Oakville, Ontario) and autoradiographic film (Fuji, Minami-Ashigara, Japan). […]

Substance | morphology of the injected cells [1] | ability to disrupt α-catenin/β-catenin interactions, as judged by immunoprecipitation [2]
Ac-CKHGWNC-NH2 (cysteine pairing not given here) [N-Ac-CKHGWNC-NH2 (SEQ ID NO:51), reference compound] | indistinguishable from surrounding uninjected cells | 
H-CKHAVVNC-OH (cysteine pairing not given here) [H-CKHAVVNC-OH (SEQ ID NO:4)] |  | capable of disrupting the interaction between α-catenin and β-catenin
H-Cys-Lys-His-Ala-Val-Val-Asn-Cys-OH (H-CKHAVVNC-OH; cysteine pairing not given here) [H-CKHAVVNC-OH (SEQ ID NO:5)] |  | capable of disrupting the interaction between α-catenin and β-catenin
H-KHAVVN-OH [H-KHAVVN-OH (SEQ ID NO:8)] | had become rounded, and they were detached from their neighbors | 
N-Ac-CKHAVVNC-NH2 (disulfide 1-8 (inferred)) [N-Ac-CKHAVVNC-NH2 (SEQ ID NO:5)] | indistinguishable from surrounding uninjected cells | 
